Measured values from patent US20030232013A1, “Therapeutic and diagnostic targeting of cancers cells with tumor homing peptides” (priority 2002, published 2003).
Structures can show the parent of a compound that is named as a salt. Where two headings read alike, the source gives them in different places. Numbered stars: 1 amine (or outer) side, 2 acyl side, 3 side chain; on linkers, the order of the positions; unused ones are H or OH. Bridge positions count the residues as written; N and C are the ends. Square brackets hold non-standard residues; d marks the D form. Peptide text beside a SMILES is read from it. I, II: the chains in the order shown. * marks the point of attachment. Actinocin(9to1) = Cc1c2oc3c(C)ccc(C(=O)[*:1])c3nc-2c(C(=O)[*:2])c(N)c1=O; DOTA = O=C(O)CN1CCN(CC(=O)O)CCN(CC(=O)*)CCN(CC(=O)O)CC1; NMeV = CN[C@H](C(=O)O)C(C)C; Ahx = NCCCCCC(=O)O; Sar = CNCC(=O)O

Assays:
[1] = oral radioactive lomustine, cited from earlier work
[2] = cited from earlier work
[3] = in vivo; cited from earlier work
[4] = tested on: multiple myeloma; settings: oral administration; cited from earlier work
[5] = humans, cited from earlier work
[6] = cited from earlier work; remark: listed apart in the source
[7] = cited from earlier work; remark: listed apart in the source
[8] = tested on: T47D (Human) breast cancer cells; experiment: In vitro competitive cell binding assay, T47D; settings: competitive binding vs. ^125I-Tyr^5-6-Ahx-Phe^19-STh or ^125I-Tyr^5-Phe^19-STh; read-out: In vitro IC50, Breast T47D (Human)
Protocol: (§1) In Vitro Competitive Cell Binding Assay. The IC50 values of both metallated and non-metallated STh conjugates were determined in human cancer cells by a competitive displacement cell binding assay using ^125I-STh (^125I-Tyr^5-Phe^19-STh or ^125I-Tyr^5-6-Ahx-Phe^19-STh). […] After the incubation, the reaction medium was aspirated and cells were washed three times with media. The radioactivity bound to the cells was counted in a Packard Riastar gamma counting system. The ^125I-STh bound to cells was plotted vs. increasing concentrations of STh conjugate to determine the respective IC50 values (Table 3). For statistical considerations, three separate in vitro cell binding experiments with each conjugate were performed in duplicate.

[9] = in vivo, cited from earlier work
[10] = tested on: A375 (Human) melanoma cells; experiment: In vitro competitive cell binding assay, A375; settings: competitive binding vs. ^125I-Tyr^5-6-Ahx-Phe^19-STh or ^125I-Tyr^5-Phe^19-STh
Protocol: as §1

[11] = tested on: PC-3 (Human) prostate cancer cells; experiment: In vitro competitive cell binding assay, PC-3; settings: competitive binding vs. ^125I-Tyr^5-6-Ahx-Phe^19-STh or ^125I-Tyr^5-Phe^19-STh
Protocol: as §1

[12] = tested on: CFPAC-1 (Human) pancreatic cancer cells; experiment: In vitro competitive cell binding assay, CFPAC-1; settings: competitive binding vs. ^125I-Tyr^5-6-Ahx-Phe^19-STh or ^125I-Tyr^5-Phe^19-STh
Protocol: as §1

[13] = tested on: MCF-7 (Human) breast cancer cells; experiment: In vitro competitive cell binding assay, MCF-7; settings: competitive binding vs. ^125I-Tyr^5-6-Ahx-Phe^19-STh or ^125I-Tyr^5-Phe^19-STh
Protocol: as §1

[14] = tested on: MB-231 (Human) breast cancer cells; experiment: In vitro competitive cell binding assay, MB-231; settings: competitive binding vs. ^125I-Tyr^5-6-Ahx-Phe^19-STh or ^125I-Tyr^5-Phe^19-STh; read-out: In vitro IC50, Breast MB-231 (Human)
Protocol: as §1

[15] = tested on: chronic myelogenous leukemia; settings: previously untreated chronic myelogenous leukemia; cited from earlier work
[16] = in vivo; cited from earlier work; remark: listed apart in the source
[17] = tested on: Hodgkin's disease; settings: cited from earlier work
[18] = in vivo; cited from earlier work; remark: listed apart in the source
[19] = tested on: T-47D cells; experiment: Scatchard analysis, T-47D; format: binding, human
Protocol: (§2) Scatchard Analysis. Scatchard analysis was performed in human cancer cells by a receptor-binding assay using ^125I-STh and 6-Ahx-Phe^19-STh or Phe^19-STh. […] After the incubation, the reaction medium was aspirated and cells were washed three times with media. The radioactivity bound to the cells was counted in a Packard Riastar gamma counting system. The experiment was performed in duplicate and average values were used for the calculations. The total bound peptide (B, both radioactive and non-radioactive), was obtained by multiplying the fraction of bound labeled peptide with the total concentration of peptide (both radioactive and non-radioactive). The total free peptide (F, both radioactive and non-radioactive) was obtained by substracting the total bound peptide from the total concentration of peptide. The non-specific binding was neglected in the calculations as it was <3%. The ratio of concentration of total bound and total free peptide (B/F) was plotted vs. total bound peptide (B) to determine the Kd (−1/slope) and Bmax (X-intercept) values. The number of receptors per cell was calculated from the Bmax (Table 4).

[20] = tested on: MB-231 cells; experiment: Scatchard analysis, MB-231; format: binding, human
Protocol: as §2

[21] = single oral doses of about 0.6 mg/kg to about […]
[22] = at equilibrium, calculated using Bmax value

O=NN(CCCl)C(=O)NC1CCCCC1 [Lomustine, 1-(2-chloro-ethyl)-3-cyclohexyl-1 nitrosourea]
radioactivity excreted in the form of degradation products within 24 hours ([1]; about 30 mg/m^2 to 100 mg/m^2): about half
serum half-life of the metabolites [1]: about 16 hours to about 2 days
solubility in 10% ethanol ([2]; 10% ethanol): about 0.05 mg/mL
solubility in absolute alcohol ([2]; absolute alcohol): about 70 mg/mL
ionization at physiological pH ([2]; physiological pH): relatively unionized
solubility in water [2]: less than 0.05 mg/mL

Cc1c2oc3c(C)ccc(C(=O)N[C@@H]4C(=O)N[C@H](C(C)C)C(=O)N5CCC[C@H]5C(=O)N(C)CC(=O)N(C)[C@@H](C(C)C)C(=O)O[C@@H]4C)c3nc-2c(C(=O)N[C@@H]2C(=O)N[C@H](C(C)C)C(=O)N3CCC[C@H]3C(=O)N(C)CC(=O)N(C)[C@@H](C(C)C)C(=O)O[C@@H]2C)c(N)c1=O [Actinomycin D] (I: T[dV]P[Sar][NMeV] / II: T[dV]P[Sar][NMeV]; ester I:1-I:C, II:1-II:C; linker I:N-II:N via Actinocin(9to1))
dose excreted intact into the bile [3]: Half of the dose
dose excreted intact into the urine [3]: 10%
half-life [3]: about 36 hours
passage of the blood-brain barrier [3]: does not pass the blood-brain barrier

N[C@@H](Cc1ccc(N(CCCl)CCCl)cc1)C(=O)O [Melphalan, 4-[bis(2-chloroethyl)amino]-L-phenylalanine]
patients with multiple myeloma showing a favorable response [4]: about one third to one half
solubility in water [2]: insoluble in water

CO[C@@]12[C@H](COC(N)=O)C3=C(C(=O)C(C)=C(N)C3=O)N1C[C@@H]1N[C@@H]12 [Mitomycin]
time required to reduce the serum concentration by about 50% ([5]; 30 mg bolus injection): 17 min
dose excreted unchanged in the urine [5]: Approximately 10%

CC[C@]1(O)C[C@H]2CN(CCc3c([nH]c4ccccc34)[C@@](C(=O)OC)(c3cc4c(cc3OC)N(C=O)[C@H]3[C@@](O)(C(=O)OC)[C@H](OC(C)=O)[C@]5(CC)C=CCN6CC[C@]43[C@@H]65)C2)C1 [vincristine]
terminal half-life (plasma) ([6]; in vivo): about 24 hours

O=C(O)CCCc1ccc(N(CCCl)CCCl)cc1 [Chlorambucil, 4-[bis(2-chlorethyl)amino] benzenebutanoic acid]
absorption from the gastrointestinal tract ([7]; oral, tablet): rapidly and completely absorbed
terminal half-life of the parent drug [7, 21]: about 1.5 hours
time to peak plasma chlorambucil levels [7, 21]: within one hour

CC(C)C[C@@H]1NC(=O)[C@H](CCC(=O)O)NC(=O)[C@@H]2CSSC[C@@H]3NC(=O)[C@H](C)NC(=O)[C@@H]4CCCN4C(=O)[C@H](CC(N)=O)NC(=O)[C@H](CSSC[C@H](NC(=O)[C@H](Cc4ccc(O)cc4)NC(=O)[C@H](CC(N)=O)NC(=O)[C@H](CO)NC(=O)[C@H](CO)NC(=O)[C@H](CC(N)=O)NC(=O)CN4CCN(CC(=O)O)CCN(CC(=O)O)CCN(CC(=O)O)CC4)C(=O)N2)NC(=O)[C@H](CSSC[C@@H](C(=O)N[C@@H](Cc2ccccc2)C(=O)O)NC(=O)CNC(=O)[C@H]([C@@H](C)O)NC3=O)NC1=O [In-DOTA-Phe^19-STh] ({DOTA}-NSSNYCCELCCNPACTGCF-OH; disulfide 6-11, 7-15, 10-18)
IC50 [8]: 8.9 ± 2.2 nM

COc1cccc2c1C(=O)c1c(O)c3c(c(O)c1C2=O)C[C@@](O)([C@H](C)O)C[C@@H]3O[C@H]1C[C@H](N)[C@H](O)[C@H](C)O1 [daunorubicinol]
half-life of active metabolite [9]: about 27 hours

CC(C)C[C@@H]1NC(=O)[C@H](CCC(=O)O)NC(=O)[C@@H]2CSSC[C@@H]3NC(=O)[C@H](C)NC(=O)[C@@H]4CCCN4C(=O)[C@H](CC(N)=O)NC(=O)[C@H](CSSC[C@H](NC(=O)[C@H](Cc4ccc(O)cc4)NC(=O)[C@H](CC(N)=O)NC(=O)[C@H](CO)NC(=O)[C@H](CO)NC(=O)[C@H](CC(N)=O)NC(=O)CCCCCNC(=O)CN4CCN(CC(=O)O)CCN(CC(=O)O)CCN(CC(=O)O)CC4)C(=O)N2)NC(=O)[C@H](CSSC[C@@H](C(=O)N[C@@H](Cc2ccccc2)C(=O)O)NC(=O)CNC(=O)[C@H]([C@@H](C)O)NC3=O)NC1=O [DOTA-6-Ahx-Phe^19-STh] ({DOTA-Ahx}-NSSNYCCELCCNPACTGCF-OH; disulfide 6-11, 7-15, 10-18)
IC50 [10]: 1.5 nM
IC50 [8]: 0.5 nM
IC50 [11]: 7 nM
IC50 [12]: 2.8 nM
IC50 [13]: 14.1 nM
IC50 [14]: 3.9 nM

CS(=O)(=O)OCCCCOS(C)(=O)=O [Busulfan, 1,4-butanediol dimethanesulfonate]
adults obtaining hematologic remission with regression or stabilization of organomegaly [15]: Approximately 90%

COc1cccc2c1C(=O)c1c(O)c3c(c(O)c1C2=O)C[C@@](O)(C(=O)CO)C[C@@H]3O[C@H]1C[C@H](N)[C@H](O)[C@H](C)O1 [Doxorubicin, 5,12-Naphthacenedione, (8s-cis)-10-[(3-amino-2,3,6-trideoxy-a-L-lyxo-hexopyranosyl)oxy]-7,8,9,10-tetrahydro-6,8, 11-trihydroxy-8-(hydroxyacetyl)-1-methoxy-hydrochloride]
absorption [16]: absorbed poorly
elimination half-life [16]: about 30 hours

O=NN(CCCl)C(=O)NCCCl [Carmustine, 1,3 bis(2-chloroethyl)-1-nitrosourea]
solubility in alcohol and lipids ([2]; alcohol and lipids): highly soluble
solubility in water [2]: poorly soluble in water

CC[C@]1(O)C[C@@H]2CN(CCc3c([nH]c4ccccc34)[C@@](C(=O)OC)(c3cc4c(cc3OC)N(C)[C@H]3[C@@](O)(C(=O)OC)[C@H](OC(C)=O)[C@]5(CC)C=CCN6CC[C@]43[C@@H]65)C2)C1 [vinblastine]
cases with significant improvement [17]: 50 to 90%
half-life of disappearance from plasma after distribution ([6]; intravenous injection): ~20 h
half-life of disappearance from plasma after distribution (first given) ([6]; intravenous injection): approximately 1 hours

COc1cccc2c1C(=O)c1c(O)c3c(c(O)c1C2=O)C[C@@](O)(C(C)=O)C[C@@H]3O[C@H]1C[C@H](N)[C@H](O)[C@H](C)O1 [Daunorubicin, 5,12-Naphthacenedione, (8S-cis)-8-acetyl-10-[(3-amino-2,3,6-trideoxy-a-L-lyxo-hexanopyranosyl)oxy]-7,8,9,10-tetrahydro-6,8,11-trihydroxy-10-methoxy-, hydrochloride]
oral absorption ([9]; po): poor
half-life of elimination [9]: about 19 hours

N.N.[Cl][Pt][Cl] [Cisplatin]
oral absorption [18]: not absorbed orally

^125I-Tyr^5-6-Ahx-Phe^19-STh
Kd ([19]; Scatchard plot): 4.4 nM
No. of receptors per cell [19, 22]: 41,758
Kd ([20]; Scatchard plot): 4 nM
No. of receptors per cell [20, 22]: 112,786
